Laboratory results from publication PMC6614837 (Nucleic Acids Research, 2019).

Molecular target: T1, RNase P holoenzyme (Thermotoga maritima, UniProt Q9X1H4)
T1 construct: GST (cleaved yes); made in house; host or cells: E. coli BL21(DE3)pLysS
T1 sequence (Q9X1H4 1-117): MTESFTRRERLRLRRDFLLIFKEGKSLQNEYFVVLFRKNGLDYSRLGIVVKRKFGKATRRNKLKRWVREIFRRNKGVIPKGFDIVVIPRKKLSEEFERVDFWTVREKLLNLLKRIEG
Assay: Biolayer interferometry binding to immobilized RNase P holoenzyme
Design: species or system T. maritima
Conditions: BLI, holoenzyme at 400 nM immobilized on Ni-NTA
Description: Real-time binding assays of the holoenzyme, P RNA, P protein, the substrate minihelix and the 5′-leader to individual compounds were performed by biolayer interferometry using an Octet RED96 system (ForteBio). For the holoenzyme or P RNA, a 5′ biotinylated RNA oligonucleotide with the sequence 5′biotin-CAUUCCAGACGAU was immobilized on Super Streptavidin (SSA) biosensors. Then, a modified P RNA or holoenzyme was added. The P RNA modification consisted of a sequence with part of the P1 stem sequence complementary to the biotinylated oligonucleotide (AUCGUCUGGA) (Supplementary Figure S23A). P1 is far from the active site or other regions involved in specific interactions (Supplementary Figure S23B) ([19]). The activity of this construct was indistinguishable from the wild-type holoenzyme. Alternatively, the holoenzyme was immobilized through the His-tagged P protein from T. maritima at 0.05 mg/ml (3.4 μM) on Ni-NTA biosensors. […] Kinetic binding parameters were calculated using Data Analysis 8.2 (ForteBio, Inc.). […]
Figure 4. […] Symbols represent the mean ± standard error as determined from three independent experiments at each concentration. […] RNase P holoenzyme was immobilized on Ni-NTA biosensors, incubated with purpurin at varying concentrations (0–400 μM), and then the association and dissociation pre-tRNA was monitored. […]

**Q.** Which Kd does the source give for O=C1c2ccccc2C(=O)c2c(O)c(O)cc(O)c21 [Purpurin, 1,2,4-trihydroxyanthraquinone] here?
**A.** Its Kd is 13.2 µM.
